The source of these data is US20030232986A1, “Inhibitors of caspases” (Vertex Pharmaceuticals Incorporated, priority 1998, published 2003).

Where a SMILES comes first, the peptide text is derived from it. The star is where a group is joined. Bz = O=C(c1ccccc1)* A value given as a limit tells only on which side of the number the result lay.

For data set [1], the system named is Human whole blood, IL-1β production. Nature of the data set: Whole blood assay for IL-1β production. It counts as cell-based. Conditions: LPS-stimulated whole blood, IL-1β by ELISA. An outline of the steps: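 LPS-stimulated (5.0 ng/ml final) human whole blood incubated with test compound in saline (or plasma/PBS-5% DMSO for hydrophobic compounds) at 30° C for 16-18 hr. Plasma IL-1β then measured by ELISA at 1:200 dilution, against no-LPS, no-inhibitor and vehicle controls.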

The nature of data set [2]: Single pass perfusion in rat: GI wall and liver metabolism, biliary excretion. It counts as in vitro ADME. Conditions: for f (g) Xf (h): GI wall metabolism f(g) x liver metabolism f(h). On the procedure:
Single pass perfusion studies in rat were performed to assess gastrointestinal (GI) wall metabolism (f(g)), liver metabolism (f(h)), and biliary excretion. The method used has been described in Pang, C. S., J. Pharmacol. Exp. Therapeutics, 333, pp. 788-798 (1984).

For data set [3], the target named is T1, Caspase-3 (Homo sapiens, UniProt P42574).
T1 sequence (P42574 29-175 limits assumed): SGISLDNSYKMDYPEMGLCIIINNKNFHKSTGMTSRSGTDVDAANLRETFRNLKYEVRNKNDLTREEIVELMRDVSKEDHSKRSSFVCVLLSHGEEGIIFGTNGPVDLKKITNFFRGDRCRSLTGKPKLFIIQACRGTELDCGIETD
T1 sequence (P42574 176-277 limits assumed): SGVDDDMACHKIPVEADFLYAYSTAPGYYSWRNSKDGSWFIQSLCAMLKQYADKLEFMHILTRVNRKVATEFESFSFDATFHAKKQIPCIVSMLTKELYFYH
Nature of the data set: Caspase-3 enzyme inhibition (Ki). It counts as biochemical. Conditions: substrate Ac-DEVD-pNA 60 μM, 8% glycerol in buffer, 37° C. On the procedure:
Ki values for test compounds with the various caspases were obtained by the method of Margolin et al. (J. Biol. Chem., 272 pp. 7223-7228 (1997)). Assays were performed in 10 mM Tris (Sigma Corp, St Louis Mo.) pH 7.5, 1 mM Dithiothreitol (DTT, Research Organic INC, Cleveland, Ohio) and 0.1% CHAPS (Pierce, Rockford Ill.) at 37° C. For caspase-3, a solution of 8% glycerol was added to the assay buffer to improve enzyme stability. A 65 μL aliquot of the assay buffer and 5 μL aliquot of the appropriate dilutions of inhibitor in DMSO where pipetted into a 96 well plate, treated with 10 μL of caspase, then diluted in assay buffer (0.5-40 nM active protein by active site titration). A control containing DMSO but no compound was included for each determination. The plates were then incubated for 15 minutes at 37° C., before addition of the appropriate substrate (20 μL, final concentration 1-4×KM, final assay volume 100 μL) to initiate the reaction. Reaction rates were measured at 37° C. either by following the time dependant increase in absorbance at 405 nm (for the pNA substrates) or in fluorescence (Ex 390, Em 460) (for the AMC substrates). The rates obtained were plotted against inhibitor concentration and the data fit to the Morrison tight-binding equation for competitive inhibitors (Morrison, J. F., Biochem. Biophys. Acta, 185 pp. 269-286 (1969)). The substrates used for the individual assays were as follows:
Caspase-3 Ac-DEVD-pNA (Bachem, King of Prussia, Pa.) (final concentration in assay, 60 μM)

The nature of data set [4]: In vivo rat clearance assay (i.v.). Conditions: plasma, iv, i.v. via jugular vein. The protocol: Cannulations of the jugular and carotid vessels of rats under anesthesia are performed one day prior to the pharmacokinetic study. M. J. Free, R. A. Jaffee; ‘Cannulation techniques for the collection blood and other bodily fluids’; in: Animal Models; p. 480-495; N. J. Alexander, Ed.; Academic Press; (1978). Drug (10 mg/mL) is administered via the jugular vein in a vehicle usually consisting of: propylene glycol/saline, containing 100 mM sodium bicarbonate in a 1:1 ratio. Animals are dosed with 10-20 mg drug/kg and blood samples are drawn at 0, 2, 5, 7, 10, 15, 20, 30, 60, and 90 minutes from an indwelling carotid catheter. The blood is centrifuged to plasma and stored at −20° C. until analysis. Pharmacokinetic analysis of data is performed by non-linear regression using standard software such as RStrip (MicroMath Software, UT) and/or Pcnonlin (SCI Software, NC) to obtain clearance values.
Rat plasma is extracted with an equal volume of acetonitrile (containing 0.1% TFA). Samples are then centrifuged at approximately 1,000×g and the supernatant analyzed by gradient HPLC. A typical assay procedure is described below.
200 μL of plasma is precipitated with 200 μL of 0.1% trifluoroacetic acid (TFA) in acetonitrile and 10 μL of a 50% aqueous zinc chloride solution, vortexed then centrifuged at ^˜1000×g and the supernatant collected and analyzed by HPLC.
A standard curve is run at 20, 10, 5, 2 and 1 μg/mL concentrations.

For the compound `CC(C)[C@H](NC(=O)c1nccc2ccccc12)C(=O)N1CCC[C@H]1C(=O)N[C@H](C=O)CC(=O)O` [Example 5c], in data set [1], the half-inhibitory concentration (IC50) was under 2500 nM. Moreover, in data set [2], the “Biliary Excretion” value is listed as “C (Category “C” indicates >10%)” and the “f (g) Xf (h)” value is “A (category “A” indicates <0.25)”.

Regarding `CC(C)[C@H](NC(=O)c1cccc2c1-c1ccccc1C2=O)C(=O)N1CCC[C@H]1C(=O)N[C@H](C=O)CC(=O)O` [Example 5k], in data set [1], the IC50 was 2500 to 7500 nM. In data set [2], the “Biliary Excretion” value is given as “A (category “A” indicates <5%)” and the “f (g) Xf (h)” value is listed as “B (Category “B” indicates 0.25-0.49)”.

In the case of `CC(C)[C@H](NC(=O)c1cc(Cl)c(O)c(Cl)c1)C(=O)N1CCC[C@H]1C(=O)N[C@H](C=O)CC(=O)O` [Example 5m], in data set [1], the IC50 is under 2500 nM. Besides, in data set [2], the “Biliary Excretion” value is on record as “C (Category “C” indicates >10%)” and the “f (g) Xf (h)” value was “B (Category “B” indicates 0.25-0.49)”.

In turn, `Cc1cc(C(=O)N[C@@H](C)C(=O)N2CCC[C@H]2C(=O)N[C@H](C=O)CC(=O)O)cc(C)c1O` [Example 7c] showed a Ki in data set [3] of over 1000 nM. Further, the IC50 in data set [1] was under 2500 nM.

For the compound `COCC(=O)N1CCN(C(=O)[C@H](C)NC(=O)c2ccc(N)c(Cl)c2)[C@H](C(=O)N[C@H](C=O)CC(=O)O)C1` [Example 18f], in data set [1], the IC50 fell in the range of 2500 to 7500 nM. Also, in data set [2], the “Biliary Excretion” value is “A (category “A” indicates <5%)” and the “f (g) Xf (h)” value is on record as “D (Category “D” indicates >0.75)”.

Take `O=C[C@H](CC(=O)O)NC(=O)[C@@H]1CCCN1C(=O)[C@H](Cc1cccnc1)NC(=O)c1nccc2ccccc12` [Example 20f]: the IC50 in data set [1] was under 2500 nM. Further, in data set [2], the “Biliary Excretion” value was “C (Category “C” indicates >10%)” and the “f (g) Xf (h)” value is reported as “B (Category “B” indicates 0.25-0.49)”.

Turning to `CSC[C@H](NC(=O)c1nccc2ccccc12)C(=O)N1CCC[C@H]1C(=O)N[C@H](C=O)CC(=O)O` [Example 20g], the concentration for half-maximal inhibition (IC50) in data set [1] is under 2500 nM. Also, in data set [2], the “Biliary Excretion” value was “A (category “A” indicates <5%)” and the “f (g) Xf (h)” value is listed as “B (Category “B” indicates 0.25-0.49)”.

As to `CS(=O)(=O)CC[C@H](NC(=O)c1nccc2ccccc12)C(=O)N1CCC[C@H]1C(=O)N[C@H](C=O)CC(=O)O` [Example 20h], the IC50 in data set [1] is under 2500 nM. The compound also registered a clearance in data set [4] of 50 to 80 mL/min/kg.

In turn, `CC[C@H](NC(=O)c1cc(Cl)c(O)c(Cl)c1)C(=O)N1CCC[C@H]1C(=O)N[C@H](C=O)CC(=O)O` [Example 20m] displayed an IC50 in data set [1] of under 2500 nM. In data set [4], this compound had a clearance of under 50 mL/min/kg.

Take `CC(C)[C@H](NC(=O)c1ccccc1)C(=O)N1CC(c2ccccc2)[C@H]1C(=O)N[C@H](C=O)CC(=O)O` (stereo partly shown) [Example 24a]: in data set [3], the Ki was over 1000 nM. Moreover, in data set [1], the IC50 fell in the range of 2500 to 7500 nM. In data set [2], the “Biliary Excretion” value is recorded as “A (category “A” indicates <5%)” and the “f (g) Xf (h)” value is on record as “C (Category “C” indicates 0.5-0.75)”.

On to `CC(C)[C@H](NC(=O)c1nccc2ccccc12)C(=O)N1CC(c2ccccc2)[C@H]1C(=O)N[C@H](C=O)CC(=O)O` (stereo partly shown) [Example 24c], for which, in data set [1], the IC50 is 2500 to 7500 nM. Further, in data set [2], the “Biliary Excretion” value is recorded as “C (Category “C” indicates >10%)” and the “f (g) Xf (h)” value is listed as “A (category “A” indicates <0.25)”.

On to `CC(C)[C@H](NC(=O)c1nccc2ccccc12)C(=O)N1CC[C@H](C)[C@H]1C(=O)N[C@H](C=O)CC(=O)O` [Example 26c], for which, in data set [1], the 50% inhibitory concentration (IC50) lay in the range of 2500 to 7500 nM. Also, in data set [2], the “Biliary Excretion” value is on record as “C (Category “C” indicates >10%)” and the “f (g) Xf (h)” value is “A (category “A” indicates <0.25)”.

`CC(C)[C@H](NC(=O)c1nccc2ccccc12)C(=O)N1C2CCCCC2C[C@H]1C(=O)N[C@H](C=O)CC(=O)O` (stereo partly shown) [Example 26e] gave an IC50 in data set [1] of under 2500 nM. For the same compound, in data set [2], the “Biliary Excretion” value was “B (Category “B” indicates 5-10%)” and the “f (g) Xf (h)” value was “B (Category “B” indicates 0.25-0.49)”.

In data set [1], `CC(C)[C@H](NC(=O)c1nccc2ccccc12)C(=O)N1[C@@H](c2ccccc2)CC[C@H]1C(=O)N[C@H](C=O)CC(=O)O` [Example 26f] registered an IC50 of 2500 to 7500 nM. In addition, in data set [2], the “Biliary Excretion” value was “C (Category “C” indicates >10%)” and the “f (g) Xf (h)” value was “A (category “A” indicates <0.25)”.

For `C[C@H](NC(=O)c1ccc(N)c(Cl)c1)C(=O)N1CC(F)(F)C[C@H]1C(=O)N[C@H](C=O)CC(=O)O` [Example 27a], the IC50 in data set [1] is under 2500 nM. In data set [2], the “Biliary Excretion” value is “A (category “A” indicates <5%)” and the “f (g) Xf (h)” value is given as “C (Category “C” indicates 0.5-0.75)”.

As to `CC(C)[C@H](NC(=O)c1ccccc1)C(=O)N[C@@H](C)C(=O)N[C@H](C=O)CC(=O)O` [Example 29a] (Bz-Val-Ala-Asp-aldehyde), in data set [3], the Ki was over 1000 nM. The IC50 in data set [1] was under 2500 nM.

`C[C@H](NC(=O)[C@@H](NC(=O)c1nccc2ccccc12)C(C)(C)C)C(=O)N[C@H](C=O)CC(=O)O` [Example 29g] gave an IC50 in data set [1] of under 2500 nM. For the same compound, in data set [2], the “Biliary Excretion” value is given as “B (Category “B” indicates 5-10%)” and the “f (g) Xf (h)” value is listed as “B (Category “B” indicates 0.25-0.49)”.

`COc1ccc(C(=O)NC(C(=O)N2N=C(C(C)(C)C)SC2C(=O)NC(C=O)CC(=O)O)C(C)C)cc1` (stereo not shown) [Example 46b] registered a Ki in data set [3] of 10 to 1000 nM. For the same compound, in data set [1], the IC50 was in the range of 2500 to 7500 nM. Further, in data set [2], the “Biliary Excretion” value is recorded as “C (Category “C” indicates >10%)” and the “f (g) Xf (h)” value was “B (Category “B” indicates 0.25-0.49)”.

As to `COc1ccc(C(=O)NC(C(=O)N2CCCC2C(=O)NC(C=O)CC(=O)O)C(C)C)cc1` (stereo not shown) [Example 57, 3-({1-[2-(4-Methoxy-benzoylamino)-3-methyl-butyryl]-pyrrolidine-2-carbonyl}-amino)-4-oxo-butyric acid], the IC50 in data set [1] was over 7500 nM. In data set [2], the “Biliary Excretion” value is given as “B (Category “B” indicates 5-10%)” and the “f (g) Xf (h)” value was “B (Category “B” indicates 0.25-0.49)”.

In the case of `COc1ccc(C(=O)NC(C(=O)N2CCCC2C(=O)NC(C=O)CC(=O)O)C(C)(C)C)cc1` (stereo not shown) [Example 69, 3-({1-[2-(4-Methoxy-benzoylamino)-3,3-dimethyl-butyryl]-pyrrolidine-2-carbonyl}-amino)-4-oxo-butyric acid], the Ki in data set [3] is over 1000 nM. Further, in data set [1], the IC50 is under 2500 nM. In addition, in data set [2], the “Biliary Excretion” value is “A (category “A” indicates <5%)” and the “f (g) Xf (h)” value is listed as “C (Category “C” indicates 0.5-0.75)”.

In turn, `C[C@H](NC(=O)c1cccc2c1-c1ccccc1C2=O)C(=O)N1CCC[C@H]1C(=O)N[C@H](C=O)CC(=O)O` [Example 122a] returned an IC50 in data set [1] of under 2500 nM. Besides, in data set [2], the “Biliary Excretion” value was “A (category “A” indicates <5%)” and the “f (g) Xf (h)” value is recorded as “B (Category “B” indicates 0.25-0.49)”.

In turn, `C[C@H](NC(=O)c1cc(Cl)c(O)c(Cl)c1)C(=O)N1CCC[C@H]1C(=O)N[C@H](C=O)CC(=O)O` [Example 122k, 3-({1-[2-(3,5-Dichloro-4-hydroxy-benzoylamino)-propionyl]-pyrrolidine-2-carbonyl}-amino)-4-oxo-butyric acid] returned a Ki in data set [3] of over 1000 nM. Moreover, the IC50 in data set [1] was under 2500 nM.
